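Grown in 96-well plates, cells were treated for 48 hours with each compound at five concentrations. Insufficient inhibition: endpoint recorded as highest concentration tested. TGI: concentration producing complete growth inhibition.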 Where a SMILES comes first, the peptide text is derived from it.
Legend:
Test in all cases: inhibition of tumour cell growth, NCI panel, 48 h
786-0 renal = test system: 786-0 renal
A498 renal = test system: A498 renal
A549 NSCLC = test system: A549 NSCLC
ACHN renal = test system: ACHN renal
BT-549 breast = test system: BT-549 breast
CAKI-1 renal = test system: CAKI-1 renal
CCRF-CEM leukemia = test system: CCRF-CEM leukemia
COLO 205 colon = test system: COLO 205 colon
DU-145 prostate = test system: DU-145 prostate
EKVX NSCLC = test system: EKVX NSCLC
HCT-116 colon = test system: HCT-116 colon
HCT-15 colon = test system: HCT-15 colon
HL-60(TB) leukemia = test system: HL-60(TB) leukemia
HOP-62 NSCLC = test system: HOP-62 NSCLC
HOP-92 NSCLC = test system: HOP-92 NSCLC
HS 578T breast = test system: HS 578T breast
HT29 colon = test system: HT29 colon
IGROV1 ovarian = test system: IGROV1 ovarian
K-562 leukemia = test system: K-562 leukemia
KM12 colon = test system: KM12 colon
LOX IMVI melanoma = test system: LOX IMVI melanoma
M14 melanoma = test system: M14 melanoma
MALME-3M melanoma = test system: MALME-3M melanoma
MCF7 breast = test system: MCF7 breast
MDA-MB-231 breast = test system: MDA-MB-231 breast
MDA-MB-435 = test system: MDA-MB-435
MDA-N = test system: MDA-N
MOLT-4 leukemia = test system: MOLT-4 leukemia
NCI-H226 lung = test system: NCI-H226 lung
NCI-H23 lung = test system: NCI-H23 lung
NCI-H522 lung = test system: NCI-H522 lung
NCI/ADR-RES ovarian = test system: NCI/ADR-RES ovarian
OVCAR-3 ovarian = test system: OVCAR-3 ovarian
OVCAR-4 ovarian = test system: OVCAR-4 ovarian
OVCAR-5 ovarian = test system: OVCAR-5 ovarian
OVCAR-8 ovarian = test system: OVCAR-8 ovarian
PC-3 prostate = test system: PC-3 prostate
RPMI-8226 leukemia = test system: RPMI-8226 leukemia
SF-268 CNS = test system: SF-268 CNS
SF-295 CNS = test system: SF-295 CNS
SF-539 CNS = test system: SF-539 CNS
SK-MEL-2 melanoma = test system: SK-MEL-2 melanoma
SK-MEL-28 melanoma = test system: SK-MEL-28 melanoma
SK-MEL-5 melanoma = test system: SK-MEL-5 melanoma
SK-OV-3 ovarian = test system: SK-OV-3 ovarian
SN12C renal = test system: SN12C renal
SNB-19 CNS = test system: SNB-19 CNS
SR leukemia = test system: SR leukemia
SW-620 colon = test system: SW-620 colon
T-47D breast = test system: T-47D breast
TK-10 renal = test system: TK-10 renal
U251 CNS = test system: U251 CNS
UACC-257 melanoma = test system: UACC-257 melanoma
UACC-62 melanoma = test system: UACC-62 melanoma
UO-31 renal = test system: UO-31 renal
HCC-2998 colon = test system: HCC-2998 colon
NCI-H460 lung = test system: NCI-H460 lung
RXF 393 renal = test system: RXF 393 renal
SNB-75 CNS = test system: SNB-75 CNS

Compound: CCC(C)C(NC(=O)C1CCCN1)C(=O)NC(C(=O)NCC(=O)NC(CC(N)=O)C(=O)NC(CC(C)C)C(=O)NC(CC(C)C)C(=O)NC(CCCCN)C(N)=O)C(C)C (configuration not stated) (H-PIVGNLLK-NH2; configuration not given here)
- TGI (786-0 renal): > 75 µM
- TGI (A498 renal): > 75 µM
- TGI (A549 NSCLC): > 75 µM
- TGI (ACHN renal): > 75 µM
- TGI (BT-549 breast): > 75 µM
- TGI (CAKI-1 renal): > 75 µM
- TGI (CCRF-CEM leukemia): > 75 µM
- TGI (COLO 205 colon): > 75 µM
- TGI (DU-145 prostate): > 75 µM
- TGI (EKVX NSCLC): > 75 µM
- TGI (HCT-116 colon): > 75 µM
- TGI (HCT-15 colon): > 75 µM
- TGI (HL-60(TB) leukemia): > 75 µM
- TGI (HOP-62 NSCLC): > 75 µM
- TGI (HOP-92 NSCLC): > 75 µM
- TGI (HS 578T breast): > 75 µM
- TGI (HT29 colon): > 75 µM
- TGI (IGROV1 ovarian): > 75 µM
- TGI (K-562 leukemia): > 75 µM
- TGI (KM12 colon): > 75 µM
- TGI (LOX IMVI melanoma): > 75 µM
- TGI (M14 melanoma): > 75 µM
- TGI (MALME-3M melanoma): > 75 µM
- TGI (MCF7 breast): > 75 µM
- TGI (MDA-MB-231 breast): > 75 µM
- TGI (MDA-MB-435): > 75 µM
- TGI (MDA-N): > 75 µM
- TGI (MOLT-4 leukemia): > 75 µM
- TGI (NCI-H226 lung): > 75 µM
- TGI (NCI-H23 lung): > 75 µM
- TGI (NCI-H522 lung): > 75 µM
- TGI (NCI/ADR-RES ovarian): > 75 µM
- TGI (OVCAR-3 ovarian): > 75 µM
- TGI (OVCAR-4 ovarian): > 75 µM
- TGI (OVCAR-5 ovarian): > 75 µM
- TGI (OVCAR-8 ovarian): > 75 µM
- TGI (PC-3 prostate): > 75 µM
- TGI (RPMI-8226 leukemia): > 75 µM
- TGI (SF-268 CNS): > 75 µM
- TGI (SF-295 CNS): > 75 µM
- TGI (SF-539 CNS): > 75 µM
- TGI (SK-MEL-2 melanoma): > 75 µM
- TGI (SK-MEL-28 melanoma): > 75 µM
- TGI (SK-MEL-5 melanoma): > 75 µM
- TGI (SK-OV-3 ovarian): > 75 µM
- TGI (SN12C renal): > 75 µM
- TGI (SNB-19 CNS): > 75 µM
- TGI (SR leukemia): > 75 µM
- TGI (SW-620 colon): > 75 µM
- TGI (T-47D breast): > 75 µM
- TGI (TK-10 renal): > 75 µM
- TGI (U251 CNS): > 75 µM
- TGI (UACC-257 melanoma): > 75 µM
- TGI (UACC-62 melanoma): > 75 µM
- TGI (UO-31 renal): > 75 µM

Compound: COC(CC1(CCNc2ccccc2)C(=O)N(COCC[Si](C)(C)C)c2ccccc21)OC (configuration not stated)
- TGI (786-0 renal): 25.4 µM
- TGI (A498 renal): 47.5 µM
- TGI (A549 NSCLC): 34.3 µM
- TGI (ACHN renal): 37.1 µM
- TGI (BT-549 breast): 32.5 µM
- TGI (CAKI-1 renal): > 62.2 µM
- TGI (CCRF-CEM leukemia): > 31.6 µM
- TGI (COLO 205 colon): 9.09 µM
- TGI (DU-145 prostate): 64.7 µM
- TGI (EKVX NSCLC): 31.7 µM
- TGI (HCC-2998 colon): 4.12 µM
- TGI (HCT-116 colon): 32.5 µM
- TGI (HCT-15 colon): 34.2 µM
- TGI (HL-60(TB) leukemia): 98.2 µM
- TGI (HOP-62 NSCLC): 28 µM
- TGI (HOP-92 NSCLC): 42.2 µM
- TGI (HS 578T breast): 41.4 µM
- TGI (HT29 colon): 30 µM
- TGI (IGROV1 ovarian): 21.4 µM
- TGI (K-562 leukemia): > 100 µM
- TGI (KM12 colon): 23.8 µM
- TGI (LOX IMVI melanoma): 29.7 µM
- TGI (M14 melanoma): 6.92 µM
- TGI (MCF7 breast): 30.4 µM
- TGI (MDA-MB-231 breast): 48.4 µM
- TGI (MDA-MB-435): 38.5 µM
- TGI (MDA-N): > 68.2 µM
- TGI (MOLT-4 leukemia): > 100 µM
- TGI (NCI-H226 lung): 21.4 µM
- TGI (NCI-H23 lung): 32.9 µM
- TGI (NCI-H460 lung): 34.4 µM
- TGI (NCI-H522 lung): 24.2 µM
- TGI (NCI/ADR-RES ovarian): 39.6 µM
- TGI (OVCAR-3 ovarian): 31.6 µM
- TGI (OVCAR-4 ovarian): 28.6 µM
- TGI (OVCAR-5 ovarian): 35 µM
- TGI (OVCAR-8 ovarian): 35.1 µM
- TGI (PC-3 prostate): 27.8 µM
- TGI (RPMI-8226 leukemia): > 100 µM
- TGI (RXF 393 renal): 29.4 µM
- TGI (SF-268 CNS): 26.3 µM
- TGI (SF-295 CNS): 32 µM
- TGI (SK-MEL-2 melanoma): 29.9 µM
- TGI (SK-MEL-28 melanoma): 30.1 µM
- TGI (SK-MEL-5 melanoma): > 100 µM
- TGI (SK-OV-3 ovarian): 30 µM
- TGI (SN12C renal): 53.6 µM
- TGI (SNB-19 CNS): 33.1 µM
- TGI (SNB-75 CNS): 14.3 µM
- TGI (SR leukemia): > 100 µM
- TGI (SW-620 colon): > 55.3 µM
- TGI (T-47D breast): 56.3 µM
- TGI (TK-10 renal): 28.9 µM
- TGI (U251 CNS): > 61 µM
- TGI (UACC-257 melanoma): 29.5 µM
- TGI (UACC-62 melanoma): 29.8 µM
- TGI (UO-31 renal): 29.6 µM

— PubChem BioAssay (NCI)
